The source made the active and inactive calls. No cut-off for these calls is given here.
Assays:
[1] = Binding affinity to Pyrococcus horikoshii sodium-coupled aspartate transporter
[2] = biological target: Glutamate transporter homolog (Pyrococcus horikoshii (strain ATCC 700860 / DSM 12428 / JCM 9974 /NBRC 100139 / OT-3), UniProt O59010, D405N); experiment: Binding affinity to Pyrococcus horikoshii sodium-coupled aspartate transporter D405N mutant in presence of NaCl
Pyrococcus horikoshii = experiment: Inhibition of [3H]L-aspartate uptake at Pyrococcus horikoshii sodium-coupled aspartate transporter in presence of thallium
[3] = Binding affinity to Pyrococcus horikoshii sodium-coupled aspartate transporter by isothermal titration calorimetry in presence of NaCl

Glutamate transporter homolog, sequence (O59010 whole entry D405N): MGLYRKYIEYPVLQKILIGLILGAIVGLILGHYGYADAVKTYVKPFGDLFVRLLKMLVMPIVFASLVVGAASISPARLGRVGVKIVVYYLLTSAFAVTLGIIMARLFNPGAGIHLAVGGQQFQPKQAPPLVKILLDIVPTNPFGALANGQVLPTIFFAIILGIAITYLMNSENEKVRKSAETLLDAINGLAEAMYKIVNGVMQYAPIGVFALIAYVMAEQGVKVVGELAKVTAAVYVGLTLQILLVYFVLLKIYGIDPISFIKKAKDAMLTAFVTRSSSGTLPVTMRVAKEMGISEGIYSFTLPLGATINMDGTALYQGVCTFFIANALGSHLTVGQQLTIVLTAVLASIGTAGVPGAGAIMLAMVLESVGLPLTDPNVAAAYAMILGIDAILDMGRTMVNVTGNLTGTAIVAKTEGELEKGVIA

Compound	Kd [1] [µM]	also measured
NC(C(=O)O)C(OCc1ccccc1)C(=O)O (racemic)	–	Kd [2]: 0.1 µM
N[C@@H](CC(=O)O)C(=O)O [ASPARTIC ACID]	–	Activity (Pyrococcus horikoshii): inactive; Kd [3]: 0.094 µM
N[C@H](CCC(=O)O)C(=O)O [D-GLUTAMATE]	162	–
N[C@@H](CCC(=O)O)C(=O)O [GLUTAMIC ACID]	122	–
O=C(O)CCC(=O)O [SUCCINIC ACID]	1450	–

Continued, in another order:

Kd [1] [µM]	Compound	also measured
0.02	N[C@@H](CS(=O)O)C(=O)O	–
0.009	N[C@H](CC(=O)O)C(=O)O [D-ASPARTATE]	–
160	N[C@@H](CO)C(=O)O [SERINE]	–
